Earlier results as cited in patent US20250082671A1, “ANIMAL FEED ADDITIVE COMPOSITION, PRE-MIX FEED COMPOSITION AND MANUFACTURING METHOD FOR SUB CLINICAL HYPCALCEMIA RELIEF, ENERGY IMPROVEMENT AND INCREASED MILK PRODUCTION” (Chemlock Metals Corp., priority 2023, published 2025).

Test system: cows
Details: multiparous cows compared to un-supplemented ones

## chromium propionate complex
  dry matter intake (DMI): on average higher
